Data on seven compounds can be found in patent US20230295157A1, “3-(1H-IMIDAZOL-2-YL)-2,3,8,8A-TETRAHYDROINDOLIZIN-5(1H)-ONE DERIVATIVES USEFUL AS FACTOR XIA INHIBITORS” (JANSSEN PHARMACEUTICA NV, priority 2020, published 2023).

Test [1] addresses human plasma kallikrein (Homo sapiens (Human), UniProt P03952). The test can be described thus: Kallikrein inhibition assay (FLINT) utilizing a quenched AMC peptide substrate. The format is biochemical. The settings on record: 30 min preincubation, kinetic reads over 30 min, Z-Gly-Pro-Arg-AMC substrate 50 μM; read-out: Kallikrein Kin Inh IC50. The procedure, abridged:
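Enzyme (2 nM final) pre-incubated 30 min at room temperature with compound (11-point, 3-fold, top 1 μM, 2% DMSO), then 50 μM Z-Gly-Pro-Arg-AMC added in Tris pH 7.5 buffer. Kinetic fluorescence 340/440 nm every 5 min over 30 min; IC50 from 4-parameter logistic fit.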

The target in test [2] is Factor XIa (Homo sapiens (Human), UniProt P03951). The test can be described thus: Factor XIa inhibition assay (FLINT) utilizing a fluorophore-quencher pair peptide substrate. In kind it is biochemical. The settings on record: 30 min preincubation, kinetic reads over 30 min, 5Fam-KLTRAETV-K5Tamra substrate 15 μM; read-out: FXIa Kin Inh IC50. The method, boiled down: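 FXIa ([…]) preincubated 30 min with compound (11-point 3-fold dilution, top 100 nM, 2% DMSO), then 15 μM quenched FXI Arg146-based peptide added; Tris pH 7.5, CaCl2, BSA, CHAPS. Fluorescence 485/520 nm read kinetically every 5 min over 30 min at RT; IC50 by 4-parameter fit.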

As usually defined, the IC50 is the concentration that inhibits the measured activity by half.

Chain of Factor XIa (P03951 388-625): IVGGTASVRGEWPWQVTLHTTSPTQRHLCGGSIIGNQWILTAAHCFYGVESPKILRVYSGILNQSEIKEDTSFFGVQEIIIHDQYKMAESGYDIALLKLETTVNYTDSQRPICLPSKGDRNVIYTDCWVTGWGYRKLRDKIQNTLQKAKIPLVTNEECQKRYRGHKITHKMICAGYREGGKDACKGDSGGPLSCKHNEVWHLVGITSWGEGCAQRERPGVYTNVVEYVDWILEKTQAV
Chain of Factor XIa (P03951 19-387 partner): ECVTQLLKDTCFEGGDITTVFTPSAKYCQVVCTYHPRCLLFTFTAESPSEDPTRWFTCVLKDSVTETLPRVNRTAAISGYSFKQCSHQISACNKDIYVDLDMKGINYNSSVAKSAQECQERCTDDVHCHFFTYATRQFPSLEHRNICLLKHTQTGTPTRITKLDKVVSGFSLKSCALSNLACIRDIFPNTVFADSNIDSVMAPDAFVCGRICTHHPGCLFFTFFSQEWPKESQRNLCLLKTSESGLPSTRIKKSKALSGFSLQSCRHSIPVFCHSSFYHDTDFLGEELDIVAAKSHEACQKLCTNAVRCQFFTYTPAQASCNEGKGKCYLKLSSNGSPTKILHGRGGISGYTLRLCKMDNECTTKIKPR
Chain of human plasma kallikrein (P03952 391-638): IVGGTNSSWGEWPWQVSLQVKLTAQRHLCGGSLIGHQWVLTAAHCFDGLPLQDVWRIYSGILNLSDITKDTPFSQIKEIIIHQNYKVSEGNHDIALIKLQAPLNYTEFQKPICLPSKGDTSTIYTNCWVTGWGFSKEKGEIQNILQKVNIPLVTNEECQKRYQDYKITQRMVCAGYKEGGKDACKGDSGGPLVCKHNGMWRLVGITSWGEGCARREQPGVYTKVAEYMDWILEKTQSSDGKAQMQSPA
Chain of human plasma kallikrein (P03952 20-390 partner): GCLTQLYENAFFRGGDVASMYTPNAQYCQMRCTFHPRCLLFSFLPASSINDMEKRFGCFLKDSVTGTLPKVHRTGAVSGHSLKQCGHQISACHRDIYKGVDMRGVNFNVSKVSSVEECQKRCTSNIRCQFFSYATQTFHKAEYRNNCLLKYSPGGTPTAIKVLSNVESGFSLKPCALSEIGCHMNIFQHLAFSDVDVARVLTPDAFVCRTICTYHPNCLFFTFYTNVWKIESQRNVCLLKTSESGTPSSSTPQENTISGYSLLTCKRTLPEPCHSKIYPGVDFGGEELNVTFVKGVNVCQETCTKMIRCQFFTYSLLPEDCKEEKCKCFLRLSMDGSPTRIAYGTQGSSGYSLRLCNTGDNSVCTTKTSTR

For `O=C1C=C(c2c(-n3cc(C(F)(F)F)nn3)ccc(Cl)c2F)C[C@H]2CC[C@@H](c3ncc(-c4c[nH]c5ccncc45)[nH]3)N12` [Example 385, (3S,8aR)-3-(5-(1H-pyrrolo[3,2-c]pyridin-3-yl)-1H-imidazol-2-yl)-7-(3-chloro-2-fluoro-6-(4-(trifluoromethyl)-1H-1,2,3-triazol-1-yl)phenyl)-2,3,8,8a-tetrahydroindolizin-5(1H)-one], the IC50 in test [1] stood at 26.8 nM; in test [2] it was 3.6 nM.

In the case of `O=C1C=C(c2c(-n3cnnn3)ccc(Cl)c2F)C[C@H]2CC[C@@H](c3ncc(-c4ccnc5c4CCO5)[nH]3)N12` [Example 386, (3S,8aR)-7-(3-chloro-2-fluoro-6-(1H-tetrazol-1-yl)phenyl)-3-(5-(2,3-dihydrofuro[2,3-b]pyridin-4-yl)-1H-imidazol-2-yl)-2,3,8,8a-tetrahydroindolizin-5(1H)-one], the IC50 in test [1] turned out to be 9.5 nM; in test [2] it was 1.3 nM.

For the compound `O=C1C=C(c2c(-n3cnnn3)ccc(Cl)c2F)C[C@H]2CC[C@@H](c3ncc(-c4ccnc5ccsc45)[nH]3)N12` [Example 387, (3S,8aR)-7-(3-chloro-2-fluoro-6-(1H-tetrazol-1-yl)phenyl)-3-(5-(thieno[3,2-b]pyridin-7-yl)-1H-imidazol-2-yl)-2,3,8,8a-tetrahydroindolizin-5(1H)-one], the values for the IC50 in test [1] and in test [2] were 3.8 nM and 1.3 nM, respectively.

`COc1cc2[nH]cc(-c3cnc([C@@H]4CC[C@@H]5CC(c6c(-n7cnnn7)ccc(Cl)c6F)=CC(=O)N54)[nH]3)c2cn1` [Example 388, (3S,8aR)-7-(3-chloro-2-fluoro-6-(1H-tetrazol-1-yl)phenyl)-3-(5-(6-methoxy-1H-pyrrolo[3,2-c]pyridin-3-yl)-1H-imidazol-2-yl)-2,3,8,8a-tetrahydroindolizin-5(1H)-one]: the IC50 in test [1] came to 1.9 nM; in test [2], 0.5 nM.

Take `Nc1cc(-c2cnc([C@@H]3CC[C@@H]4CC(c5c(-n6cnnn6)ccc(Cl)c5F)=CC(=O)N43)[nH]2)ccn1` [Example 389, (3S,8aR)-3-(5-(2-aminopyridin-4-yl)-1H-imidazol-2-yl)-7-(3-chloro-2-fluoro-6-(1H-tetrazol-1-yl)phenyl)-2,3,8,8a-tetrahydroindolizin-5(1H)-one]: the IC50 in test [1] is 12.4 nM; in test [2], 1.4 nM.

Regarding `CCNc1nccc(-c2cnc([C@@H]3CC[C@@H]4CC(c5c(-n6cnnn6)ccc(Cl)c5F)=CC(=O)N43)[nH]2)c1F` [Example 390, (3S,8aR)-7-(3-chloro-2-fluoro-6-(1H-tetrazol-1-yl)phenyl)-3-(5-(2-(ethylamino)-3-fluoropyridin-4-yl)-1H-imidazol-2-yl)-2,3,8,8a-tetrahydroindolizin-5(1H)-one], the IC50 was determined as 1.3 nM in test [1] and 0.4 nM in test [2].

As to `CC12CC[C@@H](c3ncc(-c4ccnc(CO)c4F)[nH]3)N1C(=O)C=C(c1c(-n3cnnn3)ccc(Cl)c1F)C2` (stereo partly drawn) [Example 391, (3S)-7-(3-chloro-2-fluoro-6-(1H-tetrazol-1-yl)phenyl)-3-(5-(3-fluoro-2-(hydroxymethyl)pyridin-4-yl)-1H-imidazol-2-yl)-8a-methyl-2,3,8,8a-tetrahydroindolizin-5(1H)-one], the figures for the IC50 in test [1] and in test [2] were 35.4 nM and 33.3 nM, respectively.
